Like-named read-outs stand apart in the source and are kept apart here.
Assays:
[1] = system: T3SS-mediated secretion of ExoS′-βLA fusion protein, P. aeruginosa strain MDM973; assay: Effector-β-lactamase (ExoS′-βLA) secretion assay; type: cell-based, Pseudomonas aeruginosa; details: for IC50: Pseudomonas aeruginosa, read-out: Avg. Secretion IC50
Excerpt: Effector-β-Lactamase (βLA) Secretion Assays.
P. aeruginosa. A gene encoding an ExoS'-β-lactamase (βLA) fusion protein (comprised of 234 codons of P. aeruginosa effector ExoS fused to the TEM-1 β-lactamase gene lacking secretion signal codons) was constructed by splicing by overlap extension PCR (SOE-PCR) (Choi and Schweizer, 2005, BMC Microbiol., 5:30) using primers 5-10 (Table 3, above), sequence confirmed, cloned into lacI^Q-containing GATEWAY® vector pUCP24GW (see Moir, et al., 2007, J Biomol. Screen., 12:855-64) behind the lac promoter, and introduced into P. aeruginosa by electroporation (see Choi, et al., 2006, J. Microbiol. Methods, 64:391-7). Secretion of fusion proteins was detected by measuring the hydrolysis of the chromogenic β-lactamase substrate nitrocefin in clear 96-well microplates in a modification of a previously described assay (Lee, et al., 2007, Infect. Immun., 75:1089-98). Cells of strain MDM973 (PAK/pUCP24GW-exoS:blaM) were sub-cultured in the morning from overnight growths in LBG into 0.1 ml of LBGIE with or without test compounds and grown for 150 min. Nitrocefin (100 μg/ml final) was added, and A490 measurements taken every minute for 15 min in a Victor^3V 1420 Multilabel HTS Counter (PerkinElmer). Slopes were calculated as a relative measure of the quantity of the effector-βLA fusion protein secreted and were absolutely dependent on induction with IPTG, EGTA, and the presence of a functional pscC gene in the P. aeruginosa cells. Typical signal:background ratios were 6-10.

[2] = system: T3SS-mediated cytotoxicity of translocated effector protein ExoU in CHO cells; assay: Inhibition of P. aeruginosa ExoU-dependent CHO cell killing (translocation, LDH release); type: cell-based; details: Pseudomonas aeruginosa, read-out: Avg. Translocation IC50
Excerpt: Inhibition of P. aeruginosa ExoU-Dependent CHO Cell Killing.
Pseudolipasin, which acts by direct inhibition of the ExoU phospholipase, was used as control inhibitor (Lee, et al, 2007, Infect. Immun., 75:1089-98).

[3] = Determination of mammalian cytotoxicity (MTS); type: cell-based; details: human
Procedure: Determination of Mammalian Cytotoxicity.
See, Marshall, et al., 1995, A critical assessment of the use of microculture tetrazolium assays to measure cell growth and function, Growth Regul., 5:69-84. Briefly, 96-well plates were seeded with HeLa cells at a density of 4×10^3 per well in VP-SFM medium without serum (Frazzati-Gallina, et al., 2001, J. Biotechnol., 92:67-72), in the presence or absence of serial dilutions of a compound dissolved in DMSO. Following incubation for 3 days at 37° C. in VP-SFM, cell viability was measured with the vital tetrazolium salt stain 3-(4,5-dimethylthiazol-2-yl)-2,5 diphenyltetrazolium bromide according to the manufacturer's instructions (Promega, Madison, Wis.). Values were determined in duplicate using dilutions of inhibitory compound from 100 μM to 0.2 μM.

[4] = Table 4, HeLa cells, 3 days, dilutions from 100 μM to 0.2 μM, read-out: Avg. CC50

Compound | IC50 [1] [µM] | IC50 [2] [µM] | CC50 at 3 days [3, 4] [µM] | melting point [°C] | CC50 at 3 days [3] [µM] | effect of structural alteration on T3SS-mediated secretion inhibition ([1]; vs. MBX-1641) | IC50 values lower (T3SS secretion inhibition) ([1]; vs. MBX-1641) [%]
CC(Oc1ccc(Cl)cc1Cl)C(=O)NCc1ccc(F)cc1 (stereo not drawn) [MBX-1642] | 8 | 15 | 41 | – | – | – | –
CC(Oc1ccc(Cl)cc1Cl)C(=O)NCc1ccccc1 (stereo not drawn) [MBX-1939] | – | 7.5 | 54 | 121 | – | – | –
COc1cccc(OC)c1CNC(=O)C(C)Oc1ccc(Cl)cc1Cl (stereo not drawn) [MBX-1950] | 53.3 | 5 | 22 | 122 | – | – | –
Cc1cccc(CNC(=O)C(C)Oc2ccc(Cl)cc2Cl)c1 (stereo not drawn) [MBX-1952] | – | 8 | 32 | 113 | – | – | –
CC(Oc1ccc(Cl)cc1Cl)C(=O)NCc1cccc(Cl)c1 (stereo not drawn) [MBX-1957] | – | 5.4 | 72 | 140 | – | – | –
CC(Oc1ccc(Cl)cc1Cl)C(=O)NCc1ccc(Cl)cc1 (stereo not drawn) [MBX-1958] | – | 9.6 | 42 | 115 | – | – | –
CC(Oc1ccc(Cl)cc1Cl)C(=O)NCc1ccc(N(C)C)cc1 (stereo not drawn) [MBX-1961] | 33 | 3.4 | 86 | 127 | – | – | –
CC(Oc1ccc(Cl)cc1Cl)C(=O)NCc1ccccc1F (stereo not drawn) [MBX-1962] | – | 8.2 | 32 | 121 | – | – | –
CC(Oc1ccc(Cl)cc1Cl)C(=O)NCc1cccc(F)c1 (stereo not drawn) [MBX-1963] | – | 4.9 | 59 | 106 | – | – | –
CC(Oc1ccc(Cl)cc1Cl)C(=O)NCc1ccc2c(c1)CCCO2 (stereo not drawn) [MBX-1997] | 7.3 | 9.2 | > 100 | 106 | – | – | –
CC(Oc1ncc(Cl)cc1Cl)C(=O)NCc1ccc2c(c1)OCO2 (stereo not drawn) [MBX-2155] | – | – | > 100 | 180 | – | – | –
CC(Oc1ncc(Cl)cc1Cl)C(=O)NCc1ccc(F)cc1 (stereo not drawn) [MBX-2158] | 6.8 | 26.4 | > 100 | 129 | – | – | –
COc1ccc(CNC(=O)C(C)Sc2ccc(Cl)cc2Cl)cc1 (stereo not drawn) [MBX-2163] | 8.3 | 12.2 | – | 89 | > 100 | – | –
CC(Nc1ccc(Cl)cc1Cl)C(=O)NCc1ccc2c(c1)OCO2 (stereo not drawn) [MBX-2212] | 9.6 | 35.3 | – | – | 80 | adverse effect | –
CC(Oc1ccc(Cl)cc1Cl)C(=O)NC(C)(C)c1ccc2c(c1)OCO2 (stereo not drawn) [MBX-2220] | 2.9 | 15 | 64 | 105 | – | – | 29
CC(Oc1ccc(Cl)cc1Cl)C(=O)NC(C)c1ccc(F)cc1 (stereo not drawn) [MBX-2221] | 4.6 | – | 32 | – | – | – | 34
C[C@@H](Oc1ccc(Cl)cc1Cl)C(=O)N[C@H](C)c1ccc(F)cc1 [MBX-2572] | – | > 100 | > 100 | – | – | – | –
C[C@H](NC(=O)[C@@H](C)Oc1ccc(Cl)cc1Cl)c1ccc(F)cc1 [MBX-2573] | – | > 100 | > 100 | – | – | – | –
CC(Oc1ccc(Cl)cc1Cl)C(=O)NCCc1ccc(F)cc1 (stereo not drawn) [MBX-2588] | 5.5 | 68 | 25 | 129 | – | – | –
CC(Oc1ccc(Cl)cc1Cl)C(=O)NC1COc2cc(F)ccc21 (stereo not drawn) [MBX-2589] | 25 | > 100 | 36 | 134 | – | – | –
CC(Oc1ccc(Cl)cc1Cl)C(=O)NCc1ccc2[nH]ccc2c1 (stereo not drawn) [MBX-2590] | 1.7 | – | – | 91 | 25 | – | –

Compound | IC50 [1] [µM] | IC50 [2] [µM] | CC50 at 3 days [3, 4] [µM] | melting point [°C] | CC50 at 3 days [3] [µM] | effect of structural alteration on T3SS-mediated secretion inhibition ([1]; vs. MBX-1641) | IC50 values lower (T3SS secretion inhibition) ([1]; vs. MBX-1641) [%]
CC(Oc1ccc(Cl)cc1Cl)C(=O)NCc1ccc2c(ccn2C)c1 (stereo not drawn) [MBX-2591] | 4.1 | > 100 | 38 | 146 | – | – | –
CC(Oc1ccc(Cl)cc1Cl)C(=O)NCc1ccc2occc2c1 (stereo not drawn) [MBX-2592] | 2.5 | > 100 | 44 | 125 | – | – | –
CC(Oc1ccc(Cl)cc1Cl)C(=O)NCc1ccc2[nH]cnc2c1 (stereo not drawn) [MBX-2593] | 7 | 33 | – | 71 | > 100 | – | –
CC(Oc1ccc(Cl)cc1Cl)C(=O)NCc1ccc2cc[nH]c2c1 (stereo not drawn) [MBX-2594] | 1.6 | 5.3 | 10.4 | 120 | – | – | –
CC(Oc1ccc(Cl)cc1Cl)C(=O)NC1CCc2cc(F)ccc21 (stereo not drawn) [MBX-2595] | 16 | > 100 | 35 | 135 | – | – | –
Cc1c(-c2ccccc2)[nH]c2ccc(CNC(=O)C(C)Oc3ccc(Cl)cc3Cl)cc12 (stereo not drawn) [MBX-2600] | 9 | 83 | – | 68 | 24 | – | –
CC(Oc1ccc(Cl)cc1Cl)C(=O)NC1CCCc2cc(F)ccc21 (stereo not drawn) [MBX-2601] | 35 | – | – | 82 | 40 | – | –
CCC(NC(=O)C(C)Oc1ccc(Cl)cc1Cl)c1ccc(F)cc1 (stereo not drawn) [MBX-2608] | – | – | 11 | 95 | – | – | –
CC(Oc1ccc(Cl)cc1Cl)C(=O)NCCc1c[nH]c2cc(F)ccc12 (stereo not drawn) [MBX-2613] | 12 | 10 | – | 114 | 7 | – | –
CC(Oc1ccc(Cl)cc1Cl)C(=O)NC(c1ccc(F)cc1)C1CC1 (stereo not drawn) [MBX-2614] | 1.5 | 8.4 | 12.8 | 109 | – | – | –
CC(Oc1ccc(Cl)cc1Cl)C(=O)NC(c1ccc(F)cc1)C1CCC1 (stereo not drawn) [MBX-2615] | 2.2 | – | 26 | 103 | – | – | –
CC(Oc1ccc(Cl)cc1Cl)C(=O)NC(C)(C)c1ccc(F)cc1 (stereo not drawn) [MBX-2616] | 8 | – | 16 | 105 | – | – | –
CC(Oc1ccc(Cl)cc1Cl)C(=O)NC(c1ccc(F)cc1)C(C)C (stereo not drawn) [MBX-2617] | 2.1 | – | 9 | 107 | – | – | –
CC(Oc1ccc(Cl)cc1Cl)C(=O)NCc1ccc(F)cn1 (stereo not drawn) [MBX-2623] | 21 | – | 70 | 78 | – | – | –
CC(Oc1ccc(Cl)cc1Cl)C(=O)NCc1cc2ccccc2[nH]1 (stereo not drawn) [MBX-2624] | – | 16 | 9 | – | – | – | –
CC(Oc1ccc(Cl)cc1Cl)C(=O)NCc1ccc2[nH]c(CCO)cc2c1 (stereo not drawn) [MBX-2626] | 5.4 | 9.2 | – | 157 | > 100 | – | –
CC(Oc1ccc(Cl)cc1Cl)C(=O)NC(C#N)c1ccc(F)cc1 (stereo not drawn) [MBX-2627] | 5.9 | 11 | 26 | 112 | – | – | –
CCCC(NC(=O)C(C)Oc1ccc(Cl)cc1Cl)c1ccc(F)cc1 (stereo not drawn) [MBX-2628] | 4.3 | – | 14 | 79 | – | – | –
CCCCC(NC(=O)C(C)Oc1ccc(Cl)cc1Cl)c1ccc(F)cc1 (stereo not drawn) [MBX-2629] | 4.7 | – | 19 | 100 | – | – | –
CC(Oc1ccc(Cl)cc1Cl)C(=O)NC1(c2ccc(F)cc2)CC1 (stereo not drawn) [MBX-2666] | 5.3 | – | 100 | 134 | – | – | –

From patent publication US20140219995A1, “INHIBITORS OF BACTERIAL TYPE III SECRETION SYSTEM” (priority 2011, published 2014)
